Results from patent US20190343908A1, “Therapeutic Combination for the Treatment of Cancer” (Nerium Biotechnology Inc., priority 2011, published 2019).

Experiments:
[1] = tested on: MCF-7 (human breast cancer); assay: Sulforhodamine B viability assay, MCF-7; assay type: cell-based; design: key: absorbance (optical density) at 570 nm, second wavelength subtracted
Source text: Three different viability assays were chosen to complement each other and yielded results dependent on concentration and cell line: the Methyl Tetrazolium dye assay, the Sulforhodamine B fluorescent dye assay, and the Crystal Violet dye assay.
The Sulforhodamine B and Crystal Violet assays provide information about protein and were used to complement the Methyl-Tetrazolium dye assay. […] It is used for the quantification of cellular proteins of cultured cells. The assay using Crystal Violet, a dye that binds electrostatically to proteins and stains DNA, provides a reliable, simple assay for measuring viability of cells.
(§1) The Methyl Tetrazolium, Sulforhodamine B, and Crystal Violet assays were used to assess cell viabilities. The incubation times were 24 hours, 48 hours, and 72 hours. The Nerium oleander extract Anvirzel™ (a hot water extract of oleander obtained from Salud Integral, Honduras) was tested in concentrations ranging from 0.01 ng/mL to 10 ng/mL.
(§2) Cells were detached by trypsinization (Trypsin-0.25% EDTA, Invitrogen, 25200-072) during the logarithmic phase of culture growth and plated in 96-well plates (18.000 cells/well) (Corning, Costar 359) in a final volume of 200 μl of medium per well. […] The absorbance was measured after 24 hours, 48 hours, and 72 hours of incubation.
For the Sulforhodamine B assay, 96-well plates were fixed by 10% trichloroacetic acid (Fluka, 91228) and were incubated at 4° C. for 1 hour. Afterwards, plates were rinsed with water and cells were stained with 0.4% Sulforhodamine B (Sigma, 341738), dissolved in 1% acetic acid (Carlo Ebra, 401422) for 15 minutes at room temperature (RT). The unbound stain was washed twice with 1% acetic acid. Finally, 10 mM Tris Buffer pH 10.5 (Sigma, T6791) was added to dissolve the dye.
(§3) The optical density of each plate was measured on a μQuant spectrophotometer and the data were analyzed with Gen5 software (μQuant Biomolecular Spectrophotometer MQX200 and Gen5™ Microplate Data Collection & Analysis software, BioTek® Instruments. Inc, April 2008). Absorbance was measured at 570 nm for all assays and a second wavelength was measured in order to subtract noise. For the Methyl-Tetrazolium assay this second wavelength was 630 nm and for the Sulforhodamine B and Crystal Violet assays it was 690 nm.

[2] = tested on: PANC-1 pancreatic cancer cell line; assay: Methyl-Tetrazolium viability assay, PANC-1; assay type: cell-based, human; design: key to Average MTT: absorbance at 570 nm (optical density); settings: for ABSORBANCE: 0.1 μg/mL cisplatin; for MTT 24 h / MTT 48 h / MTT 72 h: Run 1 average
Source text: The Methyl-Tetrazolium dye assay measures the activity of enzymes in mitochondria. The dye precursor is taken up by cells, where it undergoes reduction to the purple formazan. It measures only the mitochondrial activity and, thus, it is not always a reliable indication of whether the cells themselves are alive or dead, since even a recently dead cell has […] enzyme activity in mitochondria. Intracellular glucose concentration, pH, and time before assay all affect the measurements.
as §1, §2
For the Methyl-Tetrazolium assay, the dye (Sigma, M2128; 5 mg/mL, diluted in phosphate-buffered saline) was added to each well and plates were incubated for 3 hours at 37° C. After the end of the incubation period, the medium was discarded and the cells were rinsed with phosphate-buffered saline. Finally, the formazan crystals were dissolved in dimethylsulphoxide (Sigma, D4540).
as §3

SMILES: N.N.[Cl][Pt][Cl] [cisplatin]
- SRB Average ([1]; MCF-7, Run 2, 24 h, 0.1 μg/ml CDDP): 1.754
- SRB Average ([1]; MCF-7, Run 2, 24 h, 1 μg/ml CDDP): 1.225
- SRB Average ([1]; MCF-7, Run 2, 24 h, 10 μg/ml CDDP): 1.717
- SRB Average ([1]; MCF-7, Run 2, 24 h, 100 μg/ml CDDP): 1.056
- SRB Average ([1]; MCF-7, Run 2, 48 h, 0.1 μg/ml CDDP): 2.037
- SRB Average ([1]; MCF-7, Run 2, 48 h, 1 μg/ml CDDP): 0.874
- SRB Average ([1]; MCF-7, Run 2, 48 h, 10 μg/ml CDDP): 0.88
- SRB Average ([1]; MCF-7, Run 2, 48 h, 100 μg/ml CDDP): 0.985
- SRB Average ([1]; MCF-7, Run 2, 72 h, 0.1 μg/ml CDDP): 2.289
- SRB Average ([1]; MCF-7, Run 2, 72 h, 1 μg/ml CDDP): 1.409
- SRB Average ([1]; MCF-7, Run 2, 72 h, 10 μg/ml CDDP): 1.179
- SRB Average ([1]; MCF-7, Run 2, 72 h, 100 μg/ml CDDP): 0.897
- SRB Average ([1]; MCF-7, Run 3, 24 h, 0.1 μg/ml CDDP): 2.843
- SRB Average ([1]; MCF-7, Run 3, 24 h, 1 μg/ml CDDP): 1.805
- SRB Average ([1]; MCF-7, Run 3, 24 h, 10 μg/ml CDDP): 2.092
- SRB Average ([1]; MCF-7, Run 3, 24 h, 100 μg/ml CDDP): 1.077
- SRB Average ([1]; MCF-7, Run 3, 48 h, 0.1 μg/ml CDDP): 2.371
- SRB Average ([1]; MCF-7, Run 3, 48 h, 1 μg/ml CDDP): 1.787
- SRB Average ([1]; MCF-7, Run 3, 48 h, 10 μg/ml CDDP): 1.338
- SRB Average ([1]; MCF-7, Run 3, 48 h, 100 μg/ml CDDP): 1.673
- SRB Average ([1]; MCF-7, Run 3, 72 h, 0.1 μg/ml CDDP): 2.522
- SRB Average ([1]; MCF-7, Run 3, 72 h, 1 μg/ml CDDP): 1.885
- SRB Average ([1]; MCF-7, Run 3, 72 h, 10 μg/ml CDDP): 1.622
- SRB Average ([1]; MCF-7, Run 3, 72 h, 100 μg/ml CDDP): 1.181
- SRB Average ([1]; MCF-7 Run 1, 24 h, 0.1 μg/ml CDDP): 2.066
- SRB Average ([1]; MCF-7 Run 1, 24 h, 1 μg/ml CDDP): 1.404
- SRB Average ([1]; MCF-7 Run 1, 24 h, 10 μg/ml CDDP): 1.825
- SRB Average ([1]; MCF-7 Run 1, 24 h, 100 μg/ml CDDP): 1.579
- SRB Average ([1]; MCF-7 Run 1, 48 h, 0.1 μg/ml CDDP): 2.67
- SRB Average ([1]; MCF-7 Run 1, 48 h, 1 μg/ml CDDP): 1.873
- SRB Average ([1]; MCF-7 Run 1, 48 h, 10 μg/ml CDDP): 1.731
- SRB Average ([1]; MCF-7 Run 1, 48 h, 100 μg/ml CDDP): 1.452
- SRB Average ([1]; MCF-7 Run 1, 72 h, 0.1 μg/ml CDDP): 2.779
- SRB Average ([1]; MCF-7 Run 1, 72 h, 1 μg/ml CDDP): 1.762
- SRB Average ([1]; MCF-7 Run 1, 72 h, 10 μg/ml CDDP): 1.702
- SRB Average ([1]; MCF-7 Run 1, 72 h, 100 μg/ml CDDP): 1.024
- ABSORBANCE ([2]; PANC-1, 48 h): 0.286
- ABSORBANCE ([2]; PANC-1, 72 h): 0.344
- Average MTT ([2]; PANC-1, Run 2, 24 h, 0.1 μg/ml CDDP): 0.096
- Average MTT ([2]; PANC-1, Run 2, 24 h, 1 μg/ml CDDP): 0.029
- Average MTT ([2]; PANC-1, Run 2, 24 h, 10 μg/ml CDDP): 0.058
- Average MTT ([2]; PANC-1, Run 2, 24 h, 100 μg/ml CDDP): 0.029
- Average MTT ([2]; PANC-1, Run 2, 48 h, 0.1 μg/ml CDDP): 0.178
- Average MTT ([2]; PANC-1, Run 2, 48 h, 1 μg/ml CDDP): 0.037
- Average MTT ([2]; PANC-1, Run 2, 48 h, 10 μg/ml CDDP): 0.041
- Average MTT ([2]; PANC-1, Run 2, 48 h, 100 μg/ml CDDP): 0.034
- Average MTT ([2]; PANC-1, Run 2, 72 h, 0.1 μg/ml CDDP): 0.241
- Average MTT ([2]; PANC-1, Run 2, 72 h, 1 μg/ml CDDP): 0.033
- Average MTT ([2]; PANC-1, Run 2, 72 h, 10 μg/ml CDDP): 0.04
- Average MTT ([2]; PANC-1, Run 2, 72 h, 100 μg/ml CDDP): 0.033
- Average MTT ([2]; PANC-1, Run 3, 24 h, 0.1 μg/ml CDDP): 0.076
- Average MTT ([2]; PANC-1, Run 3, 24 h, 1 μg/ml CDDP): 0.02
- Average MTT ([2]; PANC-1, Run 3, 24 h, 10 μg/ml CDDP): 0.04
- Average MTT ([2]; PANC-1, Run 3, 24 h, 100 μg/ml CDDP): 0.022
- Average MTT ([2]; PANC-1, Run 3, 48 h, 0.1 μg/ml CDDP): 0.286
- Average MTT ([2]; PANC-1, Run 3, 48 h, 1 μg/ml CDDP): 0.043
- Average MTT ([2]; PANC-1, Run 3, 48 h, 10 μg/ml CDDP): 0.045
- Average MTT ([2]; PANC-1, Run 3, 48 h, 100 μg/ml CDDP): 0.044
- Average MTT ([2]; PANC-1, Run 3, 72 h, 0.1 μg/ml CDDP): 0.344
- Average MTT ([2]; PANC-1, Run 3, 72 h, 1 μg/ml CDDP): 0.049
- Average MTT ([2]; PANC-1, Run 3, 72 h, 10 μg/ml CDDP): 0.05
- Average MTT ([2]; PANC-1, Run 3, 72 h, 100 μg/ml CDDP): 0.049
- MTT 24 h ([2]; 0.1 μg/ml CDDP): 0.169
- MTT 48 h ([2]; 0.1 μg/ml CDDP): 0.24
- MTT 24 h ([2]; 1 μg/ml CDDP): 0.035
- MTT 48 h ([2]; 1 μg/ml CDDP): 0.035
- MTT 72 h ([2]; 1 μg/ml CDDP): 0.03
- MTT 24 h ([2]; 10 μg/ml CDDP): 0.048
- MTT 48 h ([2]; 10 μg/ml CDDP): 0.038
- MTT 72 h ([2]; 10 μg/ml CDDP): 0.035
- MTT 24 h ([2]; 100 μg/ml CDDP): 0.034
- MTT 48 h ([2]; 100 μg/ml CDDP): 0.039
- MTT 72 h ([2]; 100 μg/ml CDDP): 0.032
